Data reported in patent US20060281100A1, “Thiotriphosphate nucleotide dye terminators” (priority 2005, published 2006).

Assay: Spectral measurements: absorbance and emission spectra, Beckman DU7400 spectrophotometer, water media
Type: physicochemical
Protocol: Unless otherwise stated, ultraviolet spectra (UV) were recorded for samples dissolved in MeOH or water contained in a one cm path length quartz cell using a Beckman DU-7400 spectrophotometer.

## CCN1/C(=C/C=C/C=C/C2=[N+](CCCCCC(=O)O)c3ccc(S(=O)(=O)O)cc3C2(C)C)C(C)(C)c2cc(S(=O)(=O)[O-])ccc21 [Cy5]
Absorbance maximum of the free cyanine dye in water
  Abs (H2O), Cyanine Dyes: 649 nm
Emission maximum in water, column stands after the cyanine dye columns
  Em (H2O): 675 nm
